The text below walks through data of paper PMC12871931, “The importin‐alpha superfamily engages in ethylene signaling by shuttling [sequence] INSENSITIVE 2 from the endoplasmic reticulum to the nucleus” (The Febs Journal, 2025).

The test system of this assay is EIN2C^479–1294ΔNLS. Description: In planta FLIM‐FRET, EIN2C^479–1294ΔNLS‐CER donor, IMPα3‐YFP acceptor. The class given is cell-based, Arabidopsis thaliana. The settings on record: co‐expression of IMPα3‐YFP acceptor, negative control, t‐test. An excerpt:
To further investigate the interaction between members of the IMPα superfamily and EIN2 in planta, we used in vivo fluorescence lifetime microscopy and Förster's resonance energy transfer (FLIM‐FRET). Accordingly, the C‐terminal part of EIN2 (EIN2C^479–1294) was fused to the fluorescent protein Cerulean (CER), serving as a donor, and the IMPα isoforms (IMPα1‐7) were fused to YELLOW FL[…] (YFP), serving as acceptors.
FRET efficiencies ranged between 2.8–4.6%. […] Given that nuclear import of the EIN2C^479–1294ΔNLS variant is abolished, we then tested whether this is due to an impaired interaction with IMPα proteins. […]
A modified version of a previously described procedure was used for the transient transformation of N. benthamiana. […] For co‐infiltration, bacteria solutions were mixed in equal quantities, and Agrobacterium strain GV3101:p19 expressing the p19 silencing inhibitor was added to each mix. […]
Fluorescence lifetime imaging was performed using a protocol described previously. Fluorescence lifetime was measured at a Zeiss LSM 780 confocal microscope (40× water immersion objective, Zeiss C‐PlanApo, NA 1.2). […] Photons were detected in both donor and acceptor channels simultaneously with Tau‐SPADs (PicoQuant, Berlin, Germany). […] Fluorescence lifetime images were acquired in the cytosol, ER, or nucleus in donor‐only samples and samples with IMPα1‐4 and IMPα7. […]

For “IMPα3‐YFP: A. thaliana IMPα3 fused to YFP, FRET acceptor”, the “fluorescence lifetime of EIN2^479–1294ΔNLS‐CER” value was “did not result in a reduction of the fluorescence lifetime”.
